# pIC50: −log10 of the molar value. Where a name gives a salt, the structure may show the parent alone. Read-outs that look alike come from different tables or passages of the source.
# Legend:
# Format in all cases: biochemical
# [1] = biological target: T1, human JAK3 (a.a. 781-1124) (Homo sapiens, UniProt P52333); experiment: In vitro JAK kinase assay (HTRF, phosphorylation of a biotinylated peptide), JAK3
# T1 construct: JAK3 (a.a. 781-1124); His tag (N); made in house; host or cells: insect cells (baculovirus)
# Method in brief: (§1)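 Phosphorylation of a biotinylated peptide by the JAK kinase domain, detected by HTRF with Eu-Py20 and SA-APC. ATP was 90 μM for JAK1, 30 μM for JAK2 and 3 μM for JAK3. Reactions ran 1 h at room temperature and were stopped with EDTA, followed by 40 min antibody binding.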
# TYK2 = TYK2 (Homo sapiens, UniProt P29597); experiment: TYK2 kinase inhibition (Table A1)
# [2] = biological target: T2, human JAK2 (a.a. 828-1132) (Homo sapiens, UniProt O60674); experiment: In vitro JAK kinase assay (HTRF, phosphorylation of a biotinylated peptide), JAK2
# T2 construct: JAK2 (a.a. 828-1132); His tag (N); made in house; host or cells: insect cells (baculovirus)
# Method in brief: as §1
# [3] = biological target: T3, human JAK1 (a.a. 837-1142) (Homo sapiens, UniProt P23458); experiment: In vitro JAK kinase assay (HTRF, phosphorylation of a biotinylated peptide), JAK1; details: read-out: JAK1 IC50
# T3 construct: human JAK1 (a.a. 837-1142); His tag (N); made in house; host or cells: insect cells (baculovirus)
# Method in brief: as §1
# T2 sequence (O60674 828-1132): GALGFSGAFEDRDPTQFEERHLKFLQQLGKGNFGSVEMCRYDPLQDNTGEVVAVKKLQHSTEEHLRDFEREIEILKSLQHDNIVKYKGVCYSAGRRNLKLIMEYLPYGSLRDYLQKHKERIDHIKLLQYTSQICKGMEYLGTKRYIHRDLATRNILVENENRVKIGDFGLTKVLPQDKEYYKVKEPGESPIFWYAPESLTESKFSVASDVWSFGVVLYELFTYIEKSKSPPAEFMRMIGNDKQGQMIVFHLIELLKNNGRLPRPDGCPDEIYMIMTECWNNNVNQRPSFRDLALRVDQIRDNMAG
# T1 sequence (P52333 781-1124): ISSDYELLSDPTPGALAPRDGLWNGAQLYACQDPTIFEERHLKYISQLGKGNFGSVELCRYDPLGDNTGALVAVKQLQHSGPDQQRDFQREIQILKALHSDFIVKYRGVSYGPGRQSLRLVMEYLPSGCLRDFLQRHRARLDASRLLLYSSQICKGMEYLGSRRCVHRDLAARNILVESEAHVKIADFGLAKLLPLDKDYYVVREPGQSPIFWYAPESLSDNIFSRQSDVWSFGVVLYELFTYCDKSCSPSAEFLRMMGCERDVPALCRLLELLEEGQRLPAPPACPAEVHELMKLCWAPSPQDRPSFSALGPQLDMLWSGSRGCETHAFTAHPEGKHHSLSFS
# T3 sequence (P23458 849-1154): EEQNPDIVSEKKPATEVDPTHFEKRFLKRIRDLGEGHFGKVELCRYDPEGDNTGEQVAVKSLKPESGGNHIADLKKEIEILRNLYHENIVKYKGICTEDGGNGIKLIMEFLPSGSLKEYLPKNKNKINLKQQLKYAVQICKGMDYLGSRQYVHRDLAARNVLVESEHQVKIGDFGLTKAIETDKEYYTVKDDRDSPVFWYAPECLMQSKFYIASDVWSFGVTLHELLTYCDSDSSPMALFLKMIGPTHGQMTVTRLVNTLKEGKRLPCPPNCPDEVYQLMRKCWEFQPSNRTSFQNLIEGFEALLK
# Chain of TYK2 (P29597 whole entry): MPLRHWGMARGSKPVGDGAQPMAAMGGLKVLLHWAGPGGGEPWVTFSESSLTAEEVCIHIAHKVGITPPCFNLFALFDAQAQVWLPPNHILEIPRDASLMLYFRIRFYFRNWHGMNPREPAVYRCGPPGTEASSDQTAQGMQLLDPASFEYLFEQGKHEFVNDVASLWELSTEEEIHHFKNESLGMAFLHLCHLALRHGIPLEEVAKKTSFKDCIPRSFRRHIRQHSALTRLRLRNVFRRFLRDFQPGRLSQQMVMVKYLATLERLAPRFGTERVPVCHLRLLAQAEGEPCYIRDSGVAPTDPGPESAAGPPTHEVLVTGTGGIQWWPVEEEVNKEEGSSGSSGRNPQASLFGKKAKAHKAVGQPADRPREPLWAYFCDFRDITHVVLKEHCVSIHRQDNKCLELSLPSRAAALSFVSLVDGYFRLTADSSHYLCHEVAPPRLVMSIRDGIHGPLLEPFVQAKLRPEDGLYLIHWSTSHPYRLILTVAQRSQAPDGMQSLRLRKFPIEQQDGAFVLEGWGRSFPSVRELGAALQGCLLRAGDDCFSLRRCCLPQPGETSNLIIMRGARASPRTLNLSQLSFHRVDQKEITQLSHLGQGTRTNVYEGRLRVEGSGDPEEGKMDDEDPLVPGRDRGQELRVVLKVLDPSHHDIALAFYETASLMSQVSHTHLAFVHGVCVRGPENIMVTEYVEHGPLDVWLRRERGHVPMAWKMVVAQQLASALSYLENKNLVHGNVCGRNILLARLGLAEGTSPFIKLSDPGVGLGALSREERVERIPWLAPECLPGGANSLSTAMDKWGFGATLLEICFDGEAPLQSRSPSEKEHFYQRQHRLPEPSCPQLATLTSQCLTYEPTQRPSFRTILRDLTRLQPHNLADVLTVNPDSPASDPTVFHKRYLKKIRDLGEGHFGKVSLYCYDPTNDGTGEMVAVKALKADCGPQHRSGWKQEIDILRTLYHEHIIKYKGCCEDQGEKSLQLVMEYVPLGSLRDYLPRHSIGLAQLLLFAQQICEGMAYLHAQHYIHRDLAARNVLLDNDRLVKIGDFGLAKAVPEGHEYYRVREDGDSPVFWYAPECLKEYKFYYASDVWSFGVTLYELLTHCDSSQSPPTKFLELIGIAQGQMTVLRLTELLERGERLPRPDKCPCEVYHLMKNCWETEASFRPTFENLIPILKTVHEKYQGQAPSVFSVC
pIC50 ([1]; Table D1),pIC50 (TYK2; Table D1),pIC50 ([2]; Table D1),pIC50 ([3]; Table D1),pIC50 [1],pIC50 (TYK2),pIC50 [2],pIC50 [3],Compound
7.24,6.89,7.59,6.90,–,–,–,–,"Clc1cnc2nc1Nc1ccc(N3CCNCC3)c(c1)CCc1cccc(c1)N2 [Example D83, 6-Chloro-12-piperazin-1-yl-2,4,8,22-tetraazatetracyclo[14.3.1.1(3,7).1(9,13)]docosa-1(20),3(22),4,6,9(21),10,12,16,18-nonaene bis(trifluoroacetate)]"
< 6.40,< 6.40,6.80,7.34,–,–,–,–,"O=C(COc1ccc2cc1CCc1cncc(c1)Nc1ncc(Cl)c(n1)N2)N1CCN(c2ccc(F)cc2)CC1 [Example D242, 6-Chloro-12-{2-[4-(4-fluorophenyl)piperazin-1-yl]-2-oxoethoxy}-2,4,8,18,22-pentaazatetracyclo[14.3.1.1(3,7).1(9,13)]docosa-1(20),3(22),4,6,9(21),10,12,16,18-nonaene tris(trifluoroacetate)]"
< 6.40,< 6.40,6.74,7.39,–,–,–,–,"COc1ccccc1N1CCN(C(=O)COc2ccc3cc2CCc2cncc(c2)Nc2ncc(Cl)c(n2)N3)CC1 [Example D241, 6-Chloro-12-{2-[4-(2-methoxyphenyl)piperazin-1-yl]-2-oxoethoxy}-2,4,8,18,22-pentaazatetracyclo[14.3.1.1(3,7).1(9,13)]docosa-1(20),3(22),4,6,9(21),10,12,16,18-nonaene tris(trifluoroacetate)]"
8.14,8.28,9.30,8.12,–,–,–,–,"Clc1cnc2nc1Nc1cccc(c1)OCCc1cc(CN3CCOCC3)cc(c1)N2 [Example D189, 6-Chloro-19-(morpholin-4-ylmethyl)-14-oxa-2,4,8,23-tetraazatetracyclo[15.3.1.1(3,7).1(9,13)]tricosa-1(21),3(23),4,6,9(22),10,12,17,19-nonaene bis(trifluoroacetate)]"
–,–,–,–,< 6.40,< 6.40,< 6.40,6.66,"Cc1cc(C(=O)N2CCC(COc3ccc4cc3CCc3cncc(c3)Nc3ncc(Cl)c(n3)N4)C2)no1 (centres unmarked) [Example C58, 6-Chloro-12-({1-[(5-methylisoxazol-3-yl)carbonyl]pyrrolidin-3-yl}methoxy)-2,4,8,18,22-pentaazatetracyclo[14.3.1.1(3,7).1(9,13)]docosa-1(20),3(22),4,6,9(21),10,12,16,18-nonaene bis(trifluoroacetate)]"
< 6.40,< 6.40,6.74,7.10,–,–,–,–,"CCS(=O)(=O)N1CCN(C(=O)COc2ccc3cc2CCc2cncc(c2)Nc2ncc(Cl)c(n2)N3)CC1 [Example D263, 6-Chloro-12-{2-[4-(ethylsulfonyl)piperazin-1-yl]-2-oxoethoxy}-2,4,8,18,22-pentaazatetracyclo[14.3.1.1(3,7).1(9,13)]docosa-1(20),3(22),4,6,9(21),10,12,16,18-nonaene bis(trifluoroacetate)]"
6.88,6.81,7.49,6.84,–,–,–,–,"O=C(Nc1cccc(C(F)(F)F)c1)N1CCN(c2ccc3cc2CCc2cccc(c2)Nc2ncc(Cl)c(n2)N3)CC1 [Example D91, 4-[6-Chloro-2,4,8,22-tetraazatetracyclo[14.3.1.1(3,7).1(9,13)]docosa-1(20),3(22),4,6,9(21),10,12,16,18-nonaen-12-yl]-N-[3-(trifluoromethyl)phenyl]piperazine-1-carboxamide bis(trifluoroacetate)]"
< 6.00,6.58,6.97,8.05,–,–,–,–,"O=C(CC1CN(c2nc3cccnc3o2)C1)Nc1ccc2cc1CCc1cncc(c1)Nc1ncc(Cl)c(n1)N2 [Example D141, N-[6-Chloro-2,4,8,18,22-pentaazatetracyclo[14.3.1.1(3,7).1(9,13)]docosa-1(20),3(22),4,6,9(21),10,12,16,18-nonaen-12-yl]-2-(1-[1,3]oxazolo[5,4-b]pyridin-2-ylazetidin-3-yl)acetamide tris(trifluoroacetate)]"
–,–,–,–,< 6.40,6.49,< 6.40,7.30,"Cc1cc(C(=O)N2CCC(CC(=O)Nc3ccc4cc3CCc3cncc(c3)Nc3ncc(F)c(n3)N4)CC2)no1 [Example C49, N-[6-Fluoro-2,4,8,18,22-pentaazatetracyclo[14.3.1.1(3,7).1(9,13)]docosa-1(20),3(22),4,6,9(21),10,12,16,18-nonaen-12-yl]-2-{1-[(5-methylisoxazol-3-yl)carbonyl]piperidin-4-yl}acetamide trifluoroacetate]"
< 6.40,< 6.40,< 6.40,7.12,–,–,–,–,"O=C(COc1ccc2cc1CCc1cncc(c1)Nc1ncc(Cl)c(n1)N2)N1CCN(C(=O)C2CCOC2)CC1 (centres unmarked) [Example D271, 6-Chloro-12-{2-oxo-2-[4-(tetrahydrofuran-3-ylcarbonyl)piperazin-1-yl]ethoxy}-2,4,8,18,22-pentaazatetracyclo[14.3.1.1(3,7).1(9,13)]docosa-1(20),3(22),4,6,9(21),10,12,16,18-nonaene bis(trifluoroacetate)]"
7.00,7.92,7.92,8.14,–,–,–,–,"CC(=O)N1CCC[C@@H](CC(=O)Nc2ccc3cc2CCc2cncc(c2)Nc2ncc(Cl)c(n2)N3)C1 [Example D204, 2-[(3S)-1-Acetylpiperidin-3-yl]-N-[6-chloro-2,4,8,18,22-pentaazatetracyclo[14.3.1.1(3,7).1(9,13)]docosa-1(20),3(22),4,6,9(21),10,12,16,18-nonaen-12-yl]acetamide bis(trifluoroacetate)]"
< 6.40,7.05,6.95,7.68,–,–,–,–,"N#Cc1ccccc1S(=O)(=O)N1CCC(CCNc2ccc3cc2CCc2cncc(c2)Nc2ncc(Cl)c(n2)N3)CC1 [Example D222, 2-{[4-(2-{[6-Chloro-2,4,8,18,22-pentaazatetracyclo[14.3.1.1(3,7).1(9,13)]docosa-1(20),3(22),4,6,9(21),10,12,16,18-nonaen-12-yl]amino}ethyl)piperidin-1-yl]sulfonyl}benzonitrile tris(trifluoroacetate)]"
7.16,7.15,7.85,7.34,–,–,–,–,"N#Cc1ccc(NC(=O)N2CCN(c3ccc4cc3CCc3cccc(c3)Nc3ncc(Cl)c(n3)N4)CC2)cc1 [Example D93, 4-[6-Chloro-2,4,8,22-tetraazatetracyclo[14.3.1.1(3,7).1(9,13)]docosa-1(20),3(22),4,6,9(21),10,12,16,18-nonaen-12-yl]-N-(4-cyanophenyl)piperazine-1-carboxamide bis(trifluoroacetate)]"
< 6.40,6.66,7.54,7.62,–,–,–,–,"O=C(CC1CCN(c2ccccn2)C1)Nc1ccc2cc1CCc1cncc(c1)Nc1ncc(Cl)c(n1)N2 (centres unmarked) [Example D156, N-[6-Chloro-2,4,8,18,22-pentaazatetracyclo[14.3.1.1(3,7).1(9,13)]docosa-1(20),3(22),4,6,9(21),10,12,16,18-nonaen-12-yl]-2-(1-pyridin-2-ylpyrrolidin-3-yl)acetamide tris(trifluoroacetate)]"

# Reference: patent US8871753B2, “Macrocyclic compounds and their use as kinase inhibitors” (Incyte Corporation, priority 2008, dated 2014)
